| SMILES | melting point [°C] |
| --- | --- |
| COc1ccc2cc(CN(C)C(=O)c3ccc(Oc4cc(Cl)cc(Cl)c4)o3)ccc2c1Br | 115 to 117 |
| CCOC(=O)C(=O)Nc1ccc2c(=O)n3c(nc2c1)C(=Cc1ccccc1)CC3 | 248 to 250 |
| O=C1CCC(n2cnc(-c3ccc(F)cc3)c2-c2ccnc(OCCO)n2)CC1 | 203 to 205 |
| CCc1c(C)cc(C#N)c(N)c1C#N | 121 to 123 |
| COc1ccc(S(=O)(=O)N(CCC(F)(F)C(F)F)c2ccccc2/C=C/c2ccncc2)cc1 | 124 to 126 |
| CCOC(=O)C1=C(c2ccccc2)N(c2ccccc2)C(=O)C1C(=O)c1ccccc1 (stereo not drawn) | 137 to 139 |
| COC(=O)Cn1c(C(=O)O)cc2cc(C)cc(C)c21 | 221 to 223 |
| O=C(CC1c2ccccc2Sc2ccccc21)Nc1ccc(C(=O)O)cc1 | 265 to 266 |
| CCC(C)n1nc(C)n(-c2ccc(N3CCCN(c4ccc(C(=O)OC)cc4)CC3)cc2)c1=O (stereo not drawn) | 152 to 153 |
| CN(C)Cc1cc(Cc2ccccc2)c(O)c(Cc2ccccc2)c1 | 112 to 114 |
| COC(=O)C(=C1SCCCN1C(=O)OC)[N+](=O)[O-] | 71 to 72 |
| COC(=O)CCc1ccc(OCCN(C)c2nc3ccccc3o2)cc1 | 51 to 52 |
| Clc1cccc2c1ccn2Cc1ccccc1 | 58 to 60 |
| CCCc1ncc2cc(Cl)nc(OC)n12 | 76 to 77 |
| C=CCN1CCNC(=O)c2cccc([N+](=O)[O-])c21 | 80 to 82 |
| O=C(c1ccccc1)n1cc(-c2ccccc2)c2ccccc21 | 154 to 156 |
| CC1(C)OC(=O)C(C(=O)Cc2cc(F)c(F)cc2F)C(=O)O1 | 102 to 104 |
| CO/C=C1/C(=O)NC(=O)c2cc(Br)ccc21 | 242 to 243 |
| CCc1nc2c(N)nc(C)c(C)c2n1CCCC(N)=O | 228 to 230 |
| C/C(=C\C(=O)NC1CC1)c1cccc(F)c1 | 119 |
| CCCCCON=C(C(=O)OCC)c1csc(N)n1 | 86 to 88 |
| Cc1c(Cl)cccc1S(=O)(=O)Nc1nc(C(C)(C)C)cs1 | 178 |
| CN(C)c1ccc(C=O)c([N+](=O)[O-])c1 | 115 to 116 |
| O=C1c2ccccc2-n2cnc(-c3noc(CCl)n3)c2[C@@H]2CCN12 | 205 to 207 |
| O=C(OC1CCCCC1=O)c1cccc2ccccc12 (stereo not drawn) | 94 to 95 |

| SMILES | melting point [°C] |
| --- | --- |
| Sc1nnc(-c2ccc3ncsc3c2)o1 | 274 to 275 |
| O=c1c(-c2cccc(Cl)c2)coc2c(O)c(O)ccc12 | 258 |
| CCCCCCCCCCCCCCc1ccc(N(CC(=O)O)CC(=O)O)cc1 | 160 to 165 |
| CC(C)(C)C(=O)CN1C(=O)C(NC(=O)Nc2cccc(C(=O)O)c2)CN(C(=O)C(C)(C)C)c2ccccc21 (stereo not drawn) | 231 to 233 |
| CCOCc1nc2c(N)nc3cc(-c4ccccc4)ccc3c2n1CCCN1CCCC1=O | 199 to 203 |
| N#CC1(O)CCN(c2ncccc2F)CC1 | 76 to 78 |
| COc1cc2cc(C(=O)O)[nH]c2c2c1OCCC2=O | 312 |
| CCCCCC(CC(=O)Nc1cc(C(N)=O)ccc1C(C)(C)C)c1cc(C)c(OC)cc1OC (stereo not drawn) | 179 to 180 |
| CC(C(O)CCC1CC1)C1CCC2C3CC=C4CC(O)CCC4(C)C3CCC12C (stereo not drawn) | 174 to 175 |
| COc1cc2c(cc1OC)N(N)C(=O)C(C(=O)OC(C)(C)C)C2 (stereo not drawn) | 155 to 157 |
| Clc1ccc2c(c1)-c1[nH]ncc1CS2 | 205 to 206 |
| Cn1cc(C2=C(c3cn(C)c4ccc(O)cc34)C(=O)NC2=O)c2ccccc21 | 284 to 287 |
| CN(NC(=O)c1ccc(C#N)cc1)C(=O)OC(C)(C)C | 179 to 181 |
| CCCCCCCCCCCCNC(=O)OCc1ccc(OC(C)=O)c(OC)c1 | 54 to 56 |
| O=C1CC(c2ccccc2)C(=O)N1c1cc(Cc2n[nH]c(=O)c3ccccc23)ccc1F (stereo not drawn) | 114 to 120 |
| C=C(C)C(=O)OCCCOc1ccc(-c2cc(OC(=O)C(=C)C)cc(-c3ccc(OCCCOC(=O)C(=C)C)cc3)c2)cc1 | 49 |
| COc1ccc(-c2cc(=O)n(CCCOc3ccccc3)nc2-c2ccc(OC)cc2)cc1 | 110 to 111 |
| O=C1NCCc2c1c1ccccc1n2Cc1ccccc1 | 209 to 212 |
| CCOC(=O)CC(NC(=O)c1cc(N)ccc1OCCOC)c1ccccc1 (racemic) | 105 to 106 |
| OCCSc1ccc2cc(SCCO)ccc2c1 | 113 to 117 |
| O=C(O)c1cccc(C(CCc2ccc(Cl)cc2)CC(=O)c2ccccc2)c1 (stereo not drawn) | 93 to 95 |
| CC(C)(C)OC(=O)N[C@@H]1CN[C@H]2CCCO[C@H]21 (relative stereo) | 110 to 111 |
| CS(=O)(=O)c1ccc(CC(=O)c2ccc(F)cc2)cc1 | 182 to 183 |
| CC(C)(C)OC(=O)N1CCN(c2cccc3c2ccn3S(=O)(=O)c2ccccc2)CC1 | 143 to 144 |
| N#Cc1nn(-c2c(Cl)cc(C(F)(F)F)cc2Cl)c(N)c1-c1ccsc1C(F)(F)F | 162 |

| SMILES | melting point [°C] |
| --- | --- |
| CC(C)(C)c1ccc(/C=C/C(=O)Nc2ccc3ccn(CCO)c3c2)cc1 | 178 |
| Cc1oc2ccccc2c1C(=O)N(Cc1ccccc1)Cc1ccc2cc(O)ccc2c1 | 190 to 193 |
| CC(Oc1ccc(N)c([N+](=O)[O-])c1)c1cc(F)ccc1Cl (stereo not drawn) | 110 |
| CN1CCCc2c(NC(=NC#N)NC(NC(=O)Cc3ccc(Cl)cc3)C(C)(C)C)cccc21 (stereo not drawn) | 114 to 117 |
| COc1ccc(N(CCCC(=O)O)C(=O)C(C)N(C(=O)c2ccc(Cl)cc2Cl)c2ccc(OC)cc2)cc1 (stereo not drawn) | 159 to 160 |
| Cc1cc2nc(Cl)c3cnccc3n2n1 | 170 |
| CCCCc1nc(Cl)c(CNC(=O)c2cc3c(OCC(O)CN(C(=O)OC(C)(C)C)C(C)C)cccc3[nH]2)n1Cc1ccc(-c2ccccc2C(=O)OC)cc1 (stereo not drawn) | 158 to 160 |
| O=C(Cc1ccc(F)cc1)Nc1ccc(-n2nc(C3CC3)cc2C2CC2)cc1 | 141 to 148 |
| CCCCCCCCc1ccc(C(=O)C(O)c2ccccc2)cc1 (stereo not drawn) | 65 to 70 |
| CS(=O)c1nccc(-c2cn(Cc3ccccc3C#N)c(=O)n2-c2ccc(F)cc2)n1 (stereo not drawn) | 133 to 136 |
| CCOC(=O)C1=COc2cc(C(C)=O)ccc2O1 | 122 |
| O=c1[nH]c2cc(Cl)cc(Cl)c2c(=O)n1Cc1ccccc1Cl | 193 to 198 |
| CS(=O)(=O)c1ccc(-c2cc(C(=O)CCCO)nn2-c2ccc(Br)cc2)cc1 | 136 to 137 |
| COC(=O)[C@@H]1CN(C(=O)OCc2ccccc2)C[C@H]1c1ccc(OC)c(OC2CCCC2)c1 (relative stereo) | 85 |
| CCCCCCCCCCCCCCOc1ccc(CNc2ccc(CO)cc2)cc1 | 85 to 87 |
| CC(CO)c1ccc2cc(OCc3ccc4ccccc4n3)ccc2c1 (stereo not drawn) | 129 to 131 |
| CN1CCCCC1Cn1nc(-c2c(-c3ccccc3)nn3ccccc23)ccc1=O (stereo not drawn) | 154 to 155 |
| CCOC(=O)CC1CCc2ccc(COc3ccc(C#N)cc3)cc2C1 (stereo not drawn) | 51 to 52 |
| COc1ccc(C(=O)Cl)cc1C12CC3CC(CC(C3)C1)C2 | 153 to 154 |
| N#Cc1cccc(-c2c(C(N)=O)c3n(c2Cl)CCN(C(=O)NC2CCOCC2)C3)c1 | 236 to 238 |
| O=C(CCc1ccc(CNCc2ccccc2)cc1)Nc1ccc(-c2ccc(Cl)cc2)cc1 | 176 |
| CCCN(C(N)=S)C(c1ccncc1)C1CC1 (stereo not drawn) | 171 |
| Oc1cccc(-c2cc3n(n2)-c2ccccc2CC3)c1 | 172 to 175 |
| CC1(C)OCC(CO)(CO)CO1 | 124 to 126 |
| CN1CCN(C(=O)c2ccccc2)C1=C(Sc1ccccc1)[N+](=O)[O-] | 175 to 178 |

| SMILES | melting point [°C] |
| --- | --- |
| O=C1CCCc2ncc(Cl)cc21 | 84 to 86 |
| O=C(CF)Cc1ccc(Cl)cc1Cl | 48 to 52 |
| Cc1cccc(-c2cn(C)cc(-c3cccc(C(F)(F)F)c3)c2=O)c1 | 155 to 157 |
| COCCOc1ccc(/C=C/C(=O)NS(=O)(=O)c2ccc(C)cc2)c(Oc2ncc(C(F)(F)F)cc2Cl)c1 | 102 to 106 |
| CCC1CCn2c(nc(-c3ccncn3)cc2=O)N1CC(=O)c1ccccc1 (stereo not drawn) | 187 to 189 |
| CC(C)Oc1cc(CCCO)n(Cc2ccc(Cl)cc2Cl)n1 | 51 to 52 |
| COC(=O)c1ccc(F)c(S(N)(=O)=O)c1 | 127 to 129 |
| COc1cc(OC)c2ncc(C(=O)NCc3ccc(Cl)cc3)c(O)c2c1 | 270 to 271 |
| COc1c(-c2ccc3cc(NS(C)(=O)=O)ccc3c2)cc(N2CCNC2=O)cc1C(C)(C)C | 284 to 286 |
| CC1(C)C(=O)Nc2cc3[nH]c(NC(=O)c4ccncc4)nc3cc21 | > 300 |
| CC(C)C[C@H](NC(=O)[C@H](Cc1c[nH]cn1)NC(=O)[C@H](Cc1cccc2ccccc12)NC(=O)OCc1ccccc1)[C@@H](O)CC(=O)OCc1ccccc1 | 102 to 109 |
| COC(=O)C1Cc2c([nH]c3ccccc23)C(c2cc3ccccc3o2)N1 (stereo not drawn) | 195 to 198 |
| CC1SC(=O)NN=C1c1ccc2c(c1)C(=Cc1cccnc1)C(=O)N2 (stereo not drawn) | 285 |
| CC(C)N(CCN1C(=O)C(=O)c2cc(Cl)ccc21)C(C)C | 99 to 101 |
| CCOC(C)O[C@H]1C(=O)N(C(=O)OC(C)(C)C)[C@H]1c1ccccc1 (stereo partly drawn) | 90 to 91 |
| CCc1cc(-c2ccc(Cl)cc2)nc2c(C(=O)Nc3cccc(S(=O)(=O)NC(C)(C)CO)c3)cnn12 | 239 to 240 |
| COC(=O)c1ccc(NC(=O)C(N)c2ccc3c(c2)C(C)(C)CCC3(C)C)s1 (stereo not drawn) | 110 to 112 |
| CCOC(=O)c1ccc(N(Cc2ccc(Cl)cc2)C(C)=O)cc1 | 65 to 66 |
| CC(C)(C)OC(=O)n1[nH]c2c(cnc3c([N+](=O)[O-])cccc32)c1=O | > 250 |
| O=C(c1ccncc1)[N+]1([O-])CCN(C2c3ccc(Cl)cc3OCc3cccnc32)CC1 (stereo not drawn) | 206 to 208 |
| COc1cc2c(cc1OC)C1CC(=O)C3CCCC3N1CC2 (stereo not drawn) | 105 to 114 |
| CC(C)CCOc1ccc([N+](=O)[O-])cc1OCCC(C)C | 44 to 47 |
| CCOc1nn(C(=O)NS(=O)(=O)c2ccccc2N2CCCC2)c(=O)n1C | 68 |

Source: a melting point compilation (Tetko et al.; mined from patent text by program, amines drawn as free bases though some values may be those of a salt)
